This assay relates to recombinant rabies virus strain 1088 expressing gaussia luciferase (1088/GLuc). The assay can be described thus: microbe, parasite or virus in culture. It is filed as cell-based. The conditions noted are these: Lyssavirus rabies, N2a, 72 h, read-out: RABV IC50 (concentration required to inhibit the relative light units by 50%).

For the molecule `NC(=O)c1nc(F)c[nH]c1=O` [Favipiravir], the IC50 stood at 38 µM.

Values taken from publication PMC8677773, “Comprehensive exploration of chemical space using trisubstituted carboranes” (Scientific Reports, 2021).
